Test results taken from PubChem BioAssay (NCI).
Values joined by “and” are separate entries in the source; they are usually repeats but may differ in a detail not shown here. Equal entries are not always repeated.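 Results reflect a 48-hour exposure of cells in 96-well plates to compound at five concentrations. GI50 is the concentration that inhibits growth by half. At the TGI there is no net growth.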

Key:
Assay in all cases: growth of human tumour cells (NCI), 48 h
[1] = system: SNB-19 CNS
[2] = system: COLO 205 colon
[3] = system: SNB-75 CNS
[4] = system: OVCAR-8 ovarian
[5] = system: SK-MEL-28 melanoma
[6] = system: EKVX NSCLC
[7] = system: CAKI-1 renal
[8] = system: HOP-92 NSCLC
[9] = system: RXF 393 renal
[10] = system: MDA-MB-231 breast

Row | Compound | TGI [1] | TGI [2] | TGI [3] | TGI [4] | TGI [5] | TGI [6] | TGI [7] | TGI [8] | TGI [9] | GI50 [1] | GI50 [8] | GI50 [4] | GI50 [5] | GI50 [6] | GI50 [10] | TGI [10] | GI50 [7] | GI50 [2] | GI50 [3] | GI50 [9]
1 | CC(C)N(C(=O)C12C3C4C5(C#N)C3C1(C#N)C5C42C#N)C(C)C (configuration not stated) | > 100 µM | > 100 µM | > 100 µM | > 100 µM | > 100 µM | > 100 µM | – | – | – | – | – | – | – | – | – | – | – | – | – | –
2 | O=C(C(=O)c1cc2ccccc2[nH]1)c1cc2ccccc2[nH]1 | > 347 µM | > 347 µM | > 347 µM | > 347 µM | > 347 µM | > 347 µM | > 347 µM | > 347 µM | > 347 µM | – | – | – | – | – | – | – | – | – | – | –
3 | C=C(CCCCC)CN1CCCC1C(C)=O (configuration not stated) | > 100 µM | 32.4 µM | 78.7 µM | > 95.1 µM | > 100 µM | > 100 µM | > 92.3 µM | 63.8 µM | > 95.7 µM | – | – | – | – | – | – | – | – | – | – | –
4 | CCOC(=O)c1cc(C(=O)c2ccc(OC)cc2)n2ccc(/C=C/c3cc[n+](CC(=O)c4ccc(OC)cc4)cc3)cc12 | 4.06 µM | – | – | 8.32 µM | 3.69 µM | > 100 µM | – | 3.15 µM | – | 1.73 µM | 1.23 µM | 2.02 µM | 1.87 µM | 2.8 µM | 1.58 µM | 3.22 µM | – | – | – | –
5 | C=CN(C(=O)N1CCN(c2cc3c(cc2F)c(=O)c(C(=O)O)cn3C2CC2)CC1)c1nc(-c2ccc(OC)cc2)cs1 | 46 µM | 6.59 µM | 6.7 µM | 15.5 µM | > 100 µM | > 100 µM | 18.3 µM | 5.57 µM | 45.1 µM | 4.7 µM | 2.45 µM | 3.3 µM | 4.26 µM | 4.12 µM | – | – | 2.84 µM | 2.54 µM | 2.51 µM | 5.2 µM
6 | COc1cc(/C=C/c2cc(/C=C/c3ccc(O)c(OC)c3)n(C(=O)c3ccc(Cl)cc3)n2)ccc1O | 12.1 µM | 13.4 µM | 10.3 µM | 8.14 µM | 12.2 µM | – | 15 µM | 22.2 µM | – | 2.8 µM | 3.97 µM | 2.8 µM | 2.49 µM | – | 2.84 µM | 19.6 µM | 2.97 µM | 3.78 µM | 1.99 µM | –
7 | CC[C@H](C)[C@H](NC(=O)[C@H]1CCCCN1C)C(=O)N(C)[C@H](C[C@@H](OC(C)=O)c1cccc(C(=O)N[C@@H](Cc2ccccc2)C[C@H](C)C(=O)OC)n1)C(C)C | > 25 µM | 0.0132 µM and 0.00446 µM | > 25 µM | > 25 µM | – | > 25 µM | – | – | – | 0.00461 µM and 0.0025 µM | 0.000632 µM and 0.0025 µM | 0.00797 µM and 0.0056 µM | 0.00937 µM | 0.00838 µM and 0.00863 µM | 0.00427 µM and 0.00267 µM | 0.85 µM | – | 0.00182 µM and 0.0025 µM | 0.00366 µM and 0.00479 µM | 0.00316 µM
8 | O=C(NCCCCN1CCOCC1)c1cc2ccccc2o1 | > 100 µM | > 100 µM | > 100 µM | > 100 µM | > 100 µM | > 100 µM | > 100 µM | – | > 100 µM | > 100 µM | – | > 100 µM | > 100 µM | > 100 µM | > 100 µM | > 100 µM | > 100 µM | > 100 µM | > 100 µM | > 100 µM
9 | O=C(O)CSc1n[nH]c(=O)[nH]c1=O | > 100 µM | > 100 µM | > 100 µM | > 100 µM | > 100 µM | > 100 µM | > 100 µM | – | > 100 µM | – | – | – | – | – | – | > 100 µM | – | – | – | –
10 | O=C1[C@H]2ON(c3ccccc3)C(c3ccc([N+](=O)[O-])cc3)[C@H]2C(=O)N1c1ccc(Cc2ccc(N3C(=O)[C@@H]4ON(c5ccccc5)C(c5ccc([N+](=O)[O-])cc5)[C@@H]4C3=O)cc2)cc1 (some centres not stated) | > 100 µM | > 100 µM | > 100 µM | > 100 µM | > 100 µM | > 100 µM | > 100 µM | 99 µM | > 100 µM | – | – | – | – | – | – | – | – | – | – | –
11 | Cc1cnc2ccc(C)c([N+](=O)[O-])c2c1NCCCN(C)C | > 100 µM | > 100 µM | – | > 100 µM | > 100 µM | > 100 µM | > 100 µM | – | – | – | – | – | – | – | – | – | – | – | – | –
12 | NNC(=O)C(=O)N/N=C(\CCCC(=O)Nc1ccc(Cl)cc1)CC(=O)c1ccc(F)cc1 | > 100 µM | > 100 µM | > 100 µM | > 100 µM | > 100 µM | > 100 µM | – | > 100 µM | > 100 µM | – | – | – | – | – | – | – | – | – | – | –
13 | C/C(=N\N=C(N)N)C(CN1CCCCC1)C(c1ccccc1)c1c(O)c2ccccc2oc1=O (configuration not stated) | > 100 µM | > 100 µM | > 100 µM | > 100 µM | > 100 µM | > 100 µM | > 100 µM | > 100 µM | > 100 µM | – | – | – | – | – | – | – | – | – | – | –
14 | COc1ccc(Cc2c3cc(O)c(=O)cc-3ccn2C)cc1 | > 100 µM | > 100 µM | > 100 µM | > 100 µM | > 92.9 µM | > 100 µM | > 100 µM | > 100 µM | 73.7 µM | – | – | – | – | – | – | – | – | – | – | –
15 | CSc1ccc2c(cc1=O)[C@@H](NC(=O)c1cccc([N+](=O)[O-])c1)CCc1cc(O)c(O)c(O)c1-2 | > 100 µM | > 100 µM | 86.1 µM | > 100 µM | > 100 µM | > 100 µM | > 100 µM | > 100 µM | > 100 µM | – | – | – | – | – | – | – | – | – | – | –
16 | CCOC(OC(C)=O)[C@@H]1C=C[C@H](C)N(c2ccc([N+](=O)[O-])cc2)O1 (some centres not stated) | 37.4 µM | 27.7 µM | 25.9 µM | 4.55 µM | 9.62 µM | 39 µM | 24.3 µM | 16.2 µM | 22.4 µM | – | – | – | – | – | – | – | – | – | – | –
17 | C=CCNC(=O)NCCCCC(NC(C)=O)C(=O)NCc1ccccc1 (configuration not stated) | > 100 µM | > 100 µM | > 100 µM | > 100 µM | > 100 µM | > 100 µM | > 100 µM | > 100 µM | > 100 µM | – | – | – | – | – | – | – | – | – | – | –
18 | C=C(C)[C@H]1CC[C@@]2(C)C(C1)[C@H](C)CC[C@@H]2O (some centres not stated) | > 100 µM | > 100 µM | > 100 µM | > 100 µM | > 100 µM | > 100 µM | > 100 µM | > 100 µM | > 100 µM | – | – | – | – | – | – | – | – | – | – | –
19 | O=C(CSc1nc2c(n1Nc1ccccc1)-c1ccccc1SC2)Nc1nc(-c2ccc(Cl)cc2)cs1 | 63.5 µM | > 100 µM | 23.8 µM | > 100 µM | > 100 µM | > 100 µM | – | 71 µM | 43.4 µM | 15.3 µM | 11.6 µM | 6.42 µM | > 100 µM | 23.6 µM | 33.3 µM | > 100 µM | – | 4.1 µM | 9.23 µM | 15.8 µM
